Legend:
[1] = Oral pharmacokinetics in the rat; conditions: in vivo, read-out: oral pharmacokinetic half life (converted)
[2] = system: FCA induced hypersensitivity; assay: FCA induced hypersensitivity in the rat, weight-bearing readout; assay type: in vivo; conditions: for Effect of low dose when administered alone: low (ED20) doses alone, p.o. (FIG. 1); for ED20 dose: p.o., reversal of FCA induced hypersensitivity
Experimental: • At the start of the study, naïve weight bearing readings were taken. The hypersensitivity to pain was measured using the Rat incapacitance tester (Linton instruments). • All male rats (RH strain, 180-220 g) then received an intraplantar injection of 100 ul of FCA (Freund's complete adjuvant) into the left hind paw. The ECA was sonicated for 15 minutes prior to use. • 24 hours after administration of the FCA, pre-dose weight bearing readings were taken. All animals were then ranked and randomised for dosing according to their FCA window (predose difference in grams—naïve difference in grams). Rats with FCA window less than 30 were excluded from the study. • Animals were then dosed orally according to ranking and randomisation. Two studies were carried out as follows: • In the first study the ED20 doses of Example 9 and paracetamol were combined using the following protocol, • (1) Vehicle (1% methylcellulose) p.o. • (2) Paracetamol (60 mg/kg) p.o.* • (3) Example 9 (0.1 mg/kg) p.o.* • (4) Example 9 (0.1 mg/kg)+Paracetamol (60 mg/kg) p.o.** • (5) Celecoxib (10 mg/kg) p.o. • *ED20 dose • **Example 9 was dosed initially followed by paracetamol 30 minutes later. • In the second study a fixed dose ratio combination with Example 9 and paracetamol was completed using the following protocol, • (1) Vehicle (1% methylcellulose) p.o.+Vehicle (1% methylcellulose) p.o. • (2) Example 9, 0.003 mg/kg p.o.+Paracetamol, 1.8 mg/kg p.o. • (3) Example 9, 0.01 mg/kg p.o.+Paracetamol, 6 mg/kg p.o. • (4) Example 9, 0.03 mg/kg p.o.+Paracetamol, 18 mg/kg p.o. • (5) Example 9, 0.1 mg/kg p.o.+Paracetamol, 60 mg/kg p.o. • (6) Vehicle (1% methylcellulose) p.o.+Celecoxib, 10 mg/kg p.o. • Animals were assessed in the weight bearing apparatus 1 hour after the dose of paracetamol. • The study was blind and randomised by FCA window using a Latin square method. Preparation Details • All compounds were ground using a pestle and mortar prior to adding the vehicle (1% methylcellulose). Dose volume 5 ml/kg. • All doses were sonicated and stirred before administration. • In this study a positive control was also tested (Celecoxib). […] Statistical Analysis • % reversals were calculated by using the naïve, pre-dose and post dose values as follows: % Reversal=[(Pre-dose−Post-dose)/(Pre-dose−Naïve)]×100. • Graphs and ED50 values were calculated using Prism3. • Statistical analysis was carried out using ANOVA and Fischer LSD test from statistical package Statistica 6. • Synergy was statistically calculated using the synergy macro. The logED50 values and the Standard errors for the individual molecules and the combination study are obtained from Statistica 6 and put into the macro. The fixed dose ratio is specified and the macro then calculates whether the combination was statistically synergistic. It compares the combination data to the theoretical addition of the individual compounds. Results: Percentage Reversal of the Established FCA-Induced Hypersensitivity: […]

[3] = biological target: T1, recombinant human prostanoid EP4 receptor (Homo sapiens, UniProt P35408); assay: In vitro cAMP assay in HEK-EP4 cells; assay type: cell-based
T1 construct: expressed in transfected cells; host or cells: HEK-293(T) cells (HEK-EP4, G418 selected)
T1 sequence (P35408 whole entry): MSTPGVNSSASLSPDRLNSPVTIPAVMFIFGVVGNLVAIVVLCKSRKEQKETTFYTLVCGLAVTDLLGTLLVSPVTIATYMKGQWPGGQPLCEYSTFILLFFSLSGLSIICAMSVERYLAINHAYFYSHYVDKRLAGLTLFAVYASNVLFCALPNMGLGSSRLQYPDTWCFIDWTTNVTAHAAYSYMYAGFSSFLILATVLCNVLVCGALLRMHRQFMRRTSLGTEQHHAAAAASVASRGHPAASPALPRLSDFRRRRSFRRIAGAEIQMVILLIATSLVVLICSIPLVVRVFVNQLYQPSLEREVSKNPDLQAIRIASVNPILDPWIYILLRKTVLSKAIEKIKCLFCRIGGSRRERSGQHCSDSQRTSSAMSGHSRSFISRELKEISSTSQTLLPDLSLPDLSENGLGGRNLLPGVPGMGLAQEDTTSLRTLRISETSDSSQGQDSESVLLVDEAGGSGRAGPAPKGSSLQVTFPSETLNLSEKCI
Experimental: Cells were grown as a monolayer culture in DMEM-F12/F12 containing glutamax II (Gibco) and supplemented with 10% foetal bovine serum (Gibco) and 0.4 mg.ml-1 G418. HEK-EP4 cells were pre-treated 24 hr and 30 mins prior to the experiment with 10 μM indomethacin and harvested using Versene containing 10 μM indomethacin. The cells were resuspended in assay buffer (DMEM:F12, 10 μM indomethacin and 200 μM IBMX) at 1×10^6 cells per ml and incubated for 20 min at 37° C. Thereafter, 50 μl of cells were added to 50 μl agonist (compound of Formula (I)) and incubated at 37° C. for 4 minutes before stopping reactions with 1000 of 1% triton X-100. cAMP levels in the cell lysates were determined using a competition binding assay. In this assay the ability of cell lysates to inhibit 3H-cAMP (Amersham) binding to the binding subunit of protein kinase A was measured and cAMP levels were calculated from a standard curve. The data for each compound were expressed as a % of the response to a 10 nM maximal concentration of the standard agonist PGE2. For each compound the maximal response and concentration of compound causing 50% of its maximal response were calculated. Intrinsic activity is expressed relative to the maximal response to PGE2. Unless stated, reagents were purchased commercially from Sigma.

## CCOc1c2c(c(OCC)c3ccccc13)C(=O)N(c1ccc(CC(=O)O)c(F)c1)C2 [Example 9, {4-[4,9-Bis(ethyloxy)-1-oxo-1,3-dihydro-2H-benzo[f]isoindol-2-yl]-2-fluorophenyl}acetic acid]
[1]
  half-life: 7.6 h
[2]; Rattus norvegicus
  EC50 at 3 mg/kg: 0.6 µM
[2]; dosed alone at 3 mg/kg, rat
  reversal of eFCA-induced hypersensitivity: 80%
[2]
  Effect of low dose when administered alone: ineffective
[2]; rat
  ED20 dose: 0.1 mg/kg
[3]
  EC50: 0.0398 µM
[3]; maximal response relative to the maximal response to PGE2 (10 nM), read-out: average intrinsic activity
  Emax: 68%

## CC(=O)Nc1ccc(O)cc1 [Paracetamol, paracetamol, reference compound]
[2]
  Effect of low dose when administered alone: ineffective
[2]; rat
  ED20 dose: 60 mg/kg
